From ChEMBL document CHEMBL1201862, “PubChem BioAssay data set” (2004)
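96-well plates; 48 h exposure; 5 concentrations. Endpoints by linear interpolation between flanking doses. Not reached: highest tested concentration assigned. GI50 marks 50% less growth.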 Calls of active or inactive are those of the source. No stated cut-off is given here; in the data, active = GI50 up to about 1.1 µM and inactive = higher.

Columns and labels:
Experiment in all cases: inhibition of tumour cell growth, NCI panel, 48 h
U-251 = system: U-251
SK-MEL-5 = system: SK-MEL-5
MCF7 = system: MCF7
HOP-62 = system: HOP-62
UACC-257 = system: UACC-257
OVCAR-3 = system: OVCAR-3
MDA-MB-435 = system: MDA-MB-435
MOLT-4 = system: MOLT-4
PC-3 = system: PC-3
SW-620 = system: SW-620
COLO 205 = system: COLO 205
HL-60 = system: HL-60
MDA-MB-231 = system: MDA-MB-231
786-0 = system: 786-0
HT-29 = system: HT-29
K562 = system: K562
DU-145 = system: DU-145
TK-10 = system: TK-10
Malme-3M = system: Malme-3M

Measured: GI50

COc1nc2c(c(=O)n1C)N=C(c1ccccc1)[C@H](C(CC(=O)c1ccccc1)c1ccccc1)C(c1ccccc1)N2 (some centres undefined)
inactive: U-251 > 100 µM | SK-MEL-5 60.8 µM | MCF7 36.1 µM | HOP-62 > 100 µM | UACC-257 > 100 µM | OVCAR-3 > 100 µM | MDA-MB-435 > 100 µM | MOLT-4 19.5 µM | PC-3 42 µM | SW-620 > 100 µM | COLO 205 98.9 µM | HL-60 38.4 µM | MDA-MB-231 16.2 µM | 786-0 76.4 µM | HT-29 44.7 µM | K562 55.5 µM | DU-145 > 100 µM

Cc1ccc(C(O)c2cnc(C)n2Cc2ccccc2)cc1 (centres undefined)
inactive: U-251 > 100 µM | SK-MEL-5 79.1 µM | MCF7 > 100 µM | HOP-62 > 100 µM | UACC-257 67.1 µM | OVCAR-3 > 100 µM | MDA-MB-435 > 100 µM | PC-3 > 100 µM | SW-620 > 100 µM | TK-10 > 100 µM | COLO 205 > 100 µM | HL-60 6.43 µM | MDA-MB-231 > 100 µM | 786-0 > 100 µM | HT-29 > 100 µM | K562 > 100 µM | Malme-3M > 100 µM | DU-145 > 100 µM

Cn1c2ccccc2c2nc3ccccc3c(Cl)c21
inactive: U-251 55.8 µM | MCF7 > 100 µM | HOP-62 > 100 µM | UACC-257 > 100 µM | OVCAR-3 > 100 µM | MDA-MB-435 > 100 µM | MOLT-4 > 100 µM | PC-3 > 100 µM | SW-620 > 100 µM | TK-10 > 100 µM | COLO 205 > 100 µM | HL-60 > 100 µM | MDA-MB-231 > 100 µM | 786-0 > 100 µM | HT-29 > 100 µM | K562 > 100 µM | Malme-3M > 100 µM | DU-145 > 100 µM

CS(=O)(=O)OCOS(C)(=O)=O
inactive: U-251 > 100 µM | SK-MEL-5 > 100 µM | MCF7 34.4 µM | HOP-62 > 100 µM | UACC-257 > 100 µM | OVCAR-3 > 100 µM | MDA-MB-435 > 100 µM | MOLT-4 22.9 µM | PC-3 > 100 µM | SW-620 34.4 µM | TK-10 > 100 µM | COLO 205 75.3 µM | HL-60 26.7 µM | MDA-MB-231 > 100 µM | 786-0 > 100 µM | HT-29 48.3 µM | K562 > 100 µM | DU-145 59.6 µM

Cc1ccc(-c2c(C#N)c(-c3ccccc3)n(NS(=O)(=O)c3ccccc3)c(=O)c2C#N)cc1
inactive: U-251 81.7 µM | SK-MEL-5 34.6 µM | MCF7 76.2 µM | HOP-62 64.7 µM | UACC-257 > 100 µM | MDA-MB-435 99.8 µM | MOLT-4 20.7 µM | PC-3 48.1 µM | SW-620 86.3 µM | TK-10 > 100 µM | COLO 205 > 100 µM | MDA-MB-231 > 100 µM | 786-0 > 100 µM | HT-29 > 100 µM | K562 > 100 µM | Malme-3M 61.5 µM

ClCCCC1COc2ccccc2O1 (centres undefined)
inactive: U-251 > 100 µM | SK-MEL-5 > 100 µM | MCF7 > 100 µM | HOP-62 > 100 µM | UACC-257 > 100 µM | OVCAR-3 > 100 µM | MOLT-4 > 100 µM | PC-3 > 100 µM | SW-620 > 100 µM | TK-10 > 100 µM | COLO 205 > 100 µM | HL-60 > 100 µM | 786-0 > 100 µM | HT-29 > 100 µM | K562 > 100 µM | Malme-3M > 100 µM | DU-145 > 100 µM
